Common to all, as to format: in vivo
One assay concerns Puccinia triticina. The assay can be described thus: Wheat brown rust (PUCCRT) disease control on wheat seedlings. The conditions noted are these: High volume application, 100 ppm. As for the experimental part: Technical grades of materials were dissolved in acetone, which were then mixed with nine volumes of water containing 110 ppm Triton X-100. The fungicide solutions were applied onto wheat seedlings using an automated booth sprayer to run-off. All sprayed plants were allowed to air dry prior to further handling. All fungicides were evaluated using the aforementioned method for their activity vs. all target diseases, unless stated otherwise. Wheat leaf blotch and brown rust activity were also evaluated using track spray applications, in which case the fungicides were formulated as EC formulations, containing 0.1% Trycol 5941 in the spray solutions. Example B: Evaluation of Fungicidal Activity: Wheat Brown Rust (Puccinia triticina; Synonym: Puccinia recondita f. sp. tritici; Bayer Code PUCCRT) Wheat plants (variety Yuma) were grown from seed in a greenhouse in 50% mineral soil/50% soil-less Metro mix until the first leaf was fully emerged, with 7-10 seedlings per pot. These plants were inoculated with an aqueous spore suspension of Puccinia triticina either prior to or after fungicide treatments. After inoculation the plants were kept in a dark dew room at 22° C. with 100% relative humidity overnight to permit spores to germinate and infect the leaf. The plants were then transferred to a greenhouse set at 24° C. for disease to develop. Fungicide formulation, application and disease assessment followed the procedures as described in the Example A.

In a further assay the test system is Zymoseptoria tritici. The experiment in a line: Leaf blotch of wheat (SEPTTR) disease control on wheat seedlings. The conditions noted are these: High volume application, 100 ppm. As for the experimental part: Example A: Evaluation of Fungicidal Activity: Leaf Blotch of Wheat (Zymoseptoria tritici; Bayer Code […]) Technical grades of materials were dissolved in acetone, which were then mixed with nine volumes of water containing 110 ppm Triton X-100. The fungicide solutions were applied onto wheat seedlings using an automated booth sprayer to run-off. All sprayed plants were allowed to air dry prior to further handling. All fungicides were evaluated using the aforementioned method for their activity vs. all target diseases, unless stated otherwise. Wheat leaf blotch and brown rust activity were also evaluated using track spray applications, in which case the fungicides were formulated as EC formulations, containing 0.1% Trycol 5941 in the spray solutions. Wheat plants (variety Yuma) were grown from seed in a greenhouse in 50% mineral soil/50% soil-less Metro mix until the first leaf was fully emerged, with 7-10 seedlings per pot. These plants were inoculated with an aqueous spore suspension of Zymoseptoria tritici either prior to or after fungicide treatments. After inoculation the plants were kept in 100% relative humidity (one day in a dark dew chamber followed by two to three days in a lighted dew chamber at 20° C.) to permit spores to germinate and infect the leaf. The plants were then transferred to a greenhouse set at 20° C. for disease to develop. When disease symptoms were fully expressed on the 1st leaves of untreated plants, infection levels were assessed on a scale of 0 to 100 percent disease severity. Percent disease control was calculated using the ratio of disease severity on treated plants relative to untreated plants.

For another assay, the system named is Phakopsora pachyrhizi. The assay can be described thus: Asian soybean rust (PHAKPA) disease control on soybean seedlings. The conditions noted are these: Phakopsora pachyrhizi, High volume application at 25 ppm. As for the experimental part:
Example C: Evaluation of Fungicidal Activity: Asian Soybean Rust (Phakopsora pachyrhizi; Bayer Code […]) Technical grades of materials were dissolved in acetone, which were then mixed with nine volumes of water containing 0.011% Tween 20. The fungicide solutions were applied onto soybean seedlings using an automated booth sprayer to run-off. All sprayed plants were allowed to air dry prior to further handling. Soybean plants (variety Williams 82) were grown in soil-less Metro mix, with one plant per pot. Two week old seedlings were used for testing. Plants were inoculated either 3 days prior to or 1 day after fungicide treatments. Plants were incubated for 24 h in a dark dew room at 22° C. and 100% relative humidity then transferred to a growth room at 23° C. for disease to develop. Disease severity was assessed on the sprayed leaves.

Where [1] appears, read: 24 h, 1 Day Protectant, read-out: PUCCRT disease control rating, 1DP.
Setting [2] is: 72 h, 3 Day Curative, read-out: PUCCRT disease control rating, 3DC.
The mark [3] stands for this setting: 24 h, 1 Day Protectant, read-out: SEPTTR disease control rating, 1DP.
[4] abbreviates: 72 h, 3 Day Curative, read-out: SEPTTR disease control rating, 3DC.
[5] abbreviates: 24 h, 1 day protectant, read-out: PHAKPA 1DP (1 Day Protectant) disease control.
The mark [6] stands for this setting: 72 h, 3 day curative, read-out: PHAKPA 3DC (3 Day Curative) disease control.

Where two headings read alike, the source gives them in different places.

On to `COc1ccnc(C(=O)N[C@H](C)C(=O)O[C@H](C)[C@@H](C)c2ccc(F)cc2C)c1O` [Example 154], for which the pest or weed control at 100 ppm in the assay on Puccinia triticina (setting [1]) was below 0%; in the assay on Puccinia triticina (setting [2]), below 0%; with Zymoseptoria tritici (setting [3]) it was below 80%; in the assay with Zymoseptoria tritici (setting [4]) it was below 80%.

Take `COc1ccnc(C(=O)N[C@H](C)C(=O)O[C@H](C)[C@@H](C)c2ccccc2C)c1O` [Example 155]: the pest or weed control at 100 ppm with Puccinia triticina (setting [1]), in the assay with Puccinia triticina (setting [2]), in the assay with Zymoseptoria tritici (setting [3]) and in the assay on Zymoseptoria tritici (setting [4]) was below 80% each time.

On to `COc1ccnc(C(=O)N[C@H](C)C(=O)O[C@H](C)[C@H](C)c2ccc(F)cc2)c1O` [Example 156], for which the pest or weed control at 100 ppm with Puccinia triticina (setting [1]) is below 0%; in the assay with Puccinia triticina (setting [2]), below 80%; with Zymoseptoria tritici (setting [3]), below 80%; with Zymoseptoria tritici (setting [4]), below 80%.

For `COc1ccc([C@@H](C)[C@@H](C)OC(=O)[C@@H](C)NC(=O)c2nccc(OC)c2O)c(C)c1` [Example 157], the pest or weed control at 100 ppm in the assay with Puccinia triticina (setting [1]) is below 80%; in the assay on Puccinia triticina (setting [2]), below 0%; with Zymoseptoria tritici (setting [3]) it was below 80%; in the assay on Zymoseptoria tritici (setting [4]), below 80%.

Take `COc1ccnc(C(=O)N[C@@H](C)C(=O)O[C@@H](C)[C@@H](C)C2CCCC2)c1O` [Example 160]: the pest or weed control at 100 ppm in the assay with Puccinia triticina (setting [1]) is below 80%; in the assay with Puccinia triticina (setting [2]) it was above 80%; in the assay on Zymoseptoria tritici (setting [3]), below 80%; in the assay with Zymoseptoria tritici (setting [4]) it was below 80%.

With `COc1ccnc(C(=O)N[C@@H](C)C(=O)O[C@H](C)[C@H](C)c2ccccc2C(F)(F)F)c1O` [Example 161], the pest or weed control at 100 ppm in the assay on Puccinia triticina (setting [1]) is below 0%; in the assay on Puccinia triticina (setting [2]), below 0%; in the assay with Zymoseptoria tritici (setting [3]) it was below 80%; in the assay with Zymoseptoria tritici (setting [4]) it was below 80%.

Regarding `COc1ccnc(C(=O)N[C@@H](C)C(=O)O[C@H](C)[C@H](C)c2ccc(F)cc2C(F)(F)F)c1O` [Example 162], the pest or weed control at 100 ppm in the assay on Puccinia triticina (setting [1]) is below 0%; with Puccinia triticina (setting [2]), below 0%; in the assay on Zymoseptoria tritici (setting [3]), below 80%; in the assay with Zymoseptoria tritici (setting [4]), below 80%.

For the compound `COc1ccnc(C(=O)N[C@@H](C)C(=O)O[C@H](C)[C@H](C)C2CCCC2)c1O` [Example 163], the pest or weed control at 100 ppm in the assay with Puccinia triticina (setting [1]), in the assay with Puccinia triticina (setting [2]), in the assay on Zymoseptoria tritici (setting [3]) and with Zymoseptoria tritici (setting [4]) was below 80% throughout.

On to `COc1ccnc(C(=O)N[C@@H](C)C(=O)OC(C)C(C)c2c(C)cccc2C)c1O` (some centres unmarked) [Example 164], for which the pest or weed control at 100 ppm was above 80% in the assay with Puccinia triticina (setting [1]), above 80% with Puccinia triticina (setting [2]), below 80% in the assay with Zymoseptoria tritici (setting [3]) and above 80% with Zymoseptoria tritici (setting [4]).

In the case of `COc1ccnc(C(=O)N[C@@H](C)C(=O)OC(C)C(C)c2c(C)cc(F)cc2C)c1O` (some centres unmarked) [Example 165], the pest or weed control at 100 ppm in the assay on Puccinia triticina (setting [1]), with Puccinia triticina (setting [2]), in the assay with Zymoseptoria tritici (setting [3]) and in the assay on Zymoseptoria tritici (setting [4]) was above 80% each time.

`COc1ccnc(C(=O)N[C@@H](C)C(=O)O[C@@H](C)[C@@H](C)c2c(C)cccc2C)c1O` [Example 166]: the pest or weed control at 100 ppm in the assay with Puccinia triticina (setting [1]), in the assay on Puccinia triticina (setting [2]), in the assay on Zymoseptoria tritici (setting [3]) and with Zymoseptoria tritici (setting [4]) was above 80% in each case.

For the compound `COc1ccnc(C(=O)N[C@@H](C)C(=O)O[C@@H](C)[C@@H](C)c2c(C)cc(F)cc2C)c1O` [Example 167], the pest or weed control at 100 ppm in the assay with Puccinia triticina (setting [1]), in the assay with Puccinia triticina (setting [2]), in the assay on Zymoseptoria tritici (setting [3]) and in the assay with Zymoseptoria tritici (setting [4]) was above 80% throughout.

In the case of `COc1ccnc(C(=O)N[C@@H](C)C(=O)O[C@H](C)[C@H](C)c2c(C)cccc2C)c1O` [Example 168], the pest or weed control at 100 ppm with Puccinia triticina (setting [1]) is above 80%; in the assay on Puccinia triticina (setting [2]) it was above 80%; in the assay on Zymoseptoria tritici (setting [3]), below 80%; in the assay with Zymoseptoria tritici (setting [4]) it was above 80%.

`COc1ccnc(C(=O)N[C@@H](C)C(=O)O[C@H](C)[C@H](C)c2c(C)cc(F)cc2C)c1O` [Example 169]: the pest or weed control at 100 ppm with Puccinia triticina (setting [1]), with Puccinia triticina (setting [2]), in the assay on Zymoseptoria tritici (setting [3]) and in the assay on Zymoseptoria tritici (setting [4]) was above 80% each time.

Take `COc1ccccc1[C@H](C)[C@H](C)OC(=O)[C@H](C)NC(=O)c1nccc(OC)c1O` [Example 170]: the pest or weed control at 100 ppm in the assay on Puccinia triticina (setting [1]) is above 80%; in the assay on Puccinia triticina (setting [2]) it was above 80%; with Zymoseptoria tritici (setting [3]) it was below 80%; in the assay with Zymoseptoria tritici (setting [4]), below 80%.

With `COc1ccnc(C(=O)N[C@@H](C)C(=O)O[C@@H](C)[C@@H](C)c2ccccc2)c1O` [Example 171], the pest or weed control at 100 ppm in the assay on Puccinia triticina (setting [1]) was above 80%; in the assay on Puccinia triticina (setting [2]), above 80%; in the assay on Zymoseptoria tritici (setting [3]), below 80%; with Zymoseptoria tritici (setting [4]), below 80%.

Take `COc1ccnc(C(=O)N[C@@H](C)C(=O)O[C@@H](C)[C@@H](C)c2ccc(C)s2)c1O` [Example 172]: the pest or weed control at 100 ppm in the assay on Puccinia triticina (setting [1]) is below 80%; in the assay with Puccinia triticina (setting [2]), above 80%; with Zymoseptoria tritici (setting [3]), below 80%; with Zymoseptoria tritici (setting [4]), below 80%.

Consider `COc1cc(F)ccc1[C@@H](C)[C@@H](C)OC(=O)[C@H](C)NC(=O)c1nccc(OC)c1O` [Example 173], for which the pest or weed control at 100 ppm in the assay on Puccinia triticina (setting [1]) was above 80%; with Puccinia triticina (setting [2]) it was below 80%; with Zymoseptoria tritici (setting [3]) it was below 80%; in the assay on Zymoseptoria tritici (setting [4]), below 80%.

As to `COc1ccnc(C(=O)N[C@@H](C)C(=O)O[C@@H](C)[C@@H](C)c2ccc(N(C)C)cc2)c1O` [Example 176], the pest or weed control at 100 ppm was above 80% in the assay with Puccinia triticina (setting [1]), below 80% with Puccinia triticina (setting [2]), below 0% in the assay on Zymoseptoria tritici (setting [3]) and below 80% in the assay with Zymoseptoria tritici (setting [4]).

For the compound `COc1ccnc(C(=O)N[C@@H](C)C(=O)O[C@H](C)[C@@H](C)c2ccc(F)cc2C)c1OC(C)=O` [Example 181], the pest or weed control at 25 ppm in the assay on Phakopsora pachyrhizi (setting [5]) is below 80%; in the assay with Phakopsora pachyrhizi (setting [6]), below 0%.

Take `COc1ccnc(C(=O)N[C@@H](C)C(=O)O[C@H](C)[C@H](C)c2ccc(F)cc2)c1OC(C)=O` [Example 182]: the pest or weed control at 25 ppm with Phakopsora pachyrhizi (setting [5]) and with Phakopsora pachyrhizi (setting [6]) was below 80% throughout.

With `COc1ccnc(C(=S)N[C@@H](C)C(=O)O[C@@H](C)[C@@H](C)c2ccccc2C(F)(F)F)c1O` [Example 267], the pest or weed control at 100 ppm with Puccinia triticina (setting [1]) was above 80%; with Puccinia triticina (setting [2]), below 80%; with Zymoseptoria tritici (setting [3]) it was below 80%; with Zymoseptoria tritici (setting [4]) it was below 80%.

As for `COc1ccnc(C(=S)N[C@@H](C)C(=O)O[C@@H](C)[C@@H](C)c2ccc(F)cc2C(F)(F)F)c1O` [Example 268], the pest or weed control at 100 ppm in the assay on Puccinia triticina (setting [1]) is above 80%; with Puccinia triticina (setting [2]) it was below 80%; in the assay with Zymoseptoria tritici (setting [3]), below 80%; with Zymoseptoria tritici (setting [4]), below 80%.

Consider `COc1ccnc(C(=S)N[C@@H](C)C(=O)O[C@@H](C)[C@@H](C)C2CCCC2)c1O` [Example 269], for which the pest or weed control at 100 ppm in the assay on Puccinia triticina (setting [1]) was below 80%; in the assay with Puccinia triticina (setting [2]), above 80%; with Zymoseptoria tritici (setting [3]) it was below 80%; in the assay on Zymoseptoria tritici (setting [4]) it was below 80%.

The record behind these values is patent US20200399222A1, “PICOLINAMIDES AS FUNGICIDES” (Dow AgroSciences LLC, priority 2018, published 2020).
